Data reported in patent US12144820B2, “Dry powder formulations for inhalation” (VECTURA INC., priority 2016, dated 2024).
Values after ≈ are worked out from the molar mass of the structure shown. Where two headings read alike, the source gives them in different places. Blank lines part the entries; values can stand above or below the molecule they belong to.

Columns and labels:
Assay type in all cases: physicochemical
[1] = Chemical stability of aspirin in ASA/Leucine formulations by RP-HPLC after storage; details: reference standard, no storage condition
Method: Chemical stability of aspirin in the formulations were tested by RP-HPLC before and after the formulations were exposed to various storage conditions.

[2] = Potency and purity by RP-HPLC of aspirin/leucine formulations; details: before storage
Method: The properties of the ASA formulation were evaluated, including geometric particle size distribution (e.g., using laser diffraction such as the Malvern Dry Method); particle morphology (e.g., using scanning electron microscopy (SEM)); ID/Assay and purity (e.g., by HPLC); X-ray powder diffraction (XRPD); and aerosol properties by NGI.

[3] = ASA and L-leucine mixing solubility; details: for precipitation after mixing: 5 wt. % total solids, on the order of minutes
Method: The objective is to apply absolute solubility of ASA and L-Leu to a mixing study to determine if a spray drying approach is feasible. ASA and L-leucine was independently dissolved in preferred solvent: ASA in EtOH, and L-leucine in a sulfuric acid solution (pH 4.0) (which may increase L-leucine solubility in water). Proposed formulations were evaluated at a final total solids of 7 wt. % and 5 wt. %. In one embodiment, solvent ratio was 25/75 EtOH/Water. Precipitation of components was analyzed visually.

[4] = Anti-solvent evaluation of 5% w/w acetylsalicylic acid suspensions; details: 5% w/w suspension, room temperature
Method: After considering a number of factors in the end it was determined that only n-heptane and toluene fulfilled all the requirements, and therefore these were selected for further evaluation. Suspensions of acetylsalicylic acid at 5% w/w were prepared with the various anti-solvents, by charging the required amount of anti-solvent, charging the required amount of acetylsalicylic acid, and then stirring until a homogeneous suspension was obtained. The suspensions were qualitatively evaluated at room temperature and then filtered using a 0.45 μm membrane, which was then placed in an oven and dried at 60° C. until the solvent had completely evaporated. A quantitative analysis was performed on the residue that remained in the membrane by weighing the membrane before and after the test.

[5] = ASA in ethanol spray solution stability evaluation; details: for % ASA Purity / % SA: 9 wt % ASA in ethanol
Method: ASA degrades to salicylic acid (SA) as a function of time and temperature due to dissolution. Initial and cold 1 day solutions contained less than 0.5% SA.
9 wt % ASA was added to ethanol with constant stirring to stainless steel vessels. Samples were either stirred at ambient room temperature (approx. 22° C.) or 4° C. and sampled at 1, 3 and 6 days (Table 34).

[6] = ASA and L-leucine absolute solubility in EtOH/water blends
Method: To define the absolute solubility of ASA and L-leucine in a variety of solvent blends, solvent blends were evaluated for solubility of ASA and L-leucine by visual confirmation. As used in this example, unless specified otherwise, leucine is L-leucine.

ASA Purity (%) [1]: 99.76%
SA Impurity (%) [1]: 0.24%
SMILES: CC(=O)Oc1ccccc1C(=O)O [ASA Reference Standard]

ASA Purity [2]: 99.76 ± 0.11%
SA Purity [2]: 0.24 ± 0.11%
SMILES: CC(=O)Oc1ccccc1C(=O)O [ASA Standard]

precipitation after mixing [3]: no evidence of precipitation
solubility behaviour in anti-solvent ([4]; n-heptane): phobic behavior
solubility behaviour in anti-solvent ([4]; toluene): partially soluble
% ASA Purity ([5]; Ambient Conditions, 1 Day): 98.0%
% SA ([5]; Ambient Conditions, 1 Day): 1.7%
% ASA Purity ([5]; Ambient Conditions, 3 Day): 90.5%
% SA ([5]; Ambient Conditions, 3 Day): 7.5%
% ASA Purity ([5]; Ambient Conditions, 6 Day): 90.5%
% SA ([5]; Ambient Conditions, 6 Day): 7.2%
% ASA Purity ([5]; Ambient Conditions, Initial): 99.9%
% SA ([5]; Ambient Conditions, Initial): 0.1%
% ASA Purity ([5]; Controlled 4° C., 1 Day): 99.1%
% SA ([5]; Controlled 4° C., 1 Day): 0.4%
% ASA Purity ([5]; Controlled 4° C., 3 Day): 97.5%
% SA ([5]; Controlled 4° C., 3 Day): 2.0%
% ASA Purity ([5]; Controlled 4° C., 6 Day): 96.7%
% SA ([5]; Controlled 4° C., 6 Day): 2.3%
% ASA Purity ([5]; Controlled 4° C., Initial): 99.9%
% SA ([5]; Controlled 4° C., Initial): 0%
SA content of spray solution ([5]; Initial and cold 1 day solutions): less than 0.5%
ASA solubility ([6]; EtOH/Water 50/50 (v/v)): 7.5 wt. %
solubility ([6]; EtOH/Water 50/50 (v/v), aqueous with cosolvent or surfactant or cyclodextrin, read-out: ASA solubility): 72500 µg/mL (≈ 402 mM)
ASA solubility ([6]; EtOH/Water 75/25 (v/v)): 17.4 wt. %
solubility ([6]; EtOH/Water 75/25 (v/v), organic solvent or mixture, read-out: ASA solubility): 118000 µg/mL (≈ 653 mM)
ASA solubility ([6]; EtOH/Water 90/10 (v/v)): 21.4 wt. %
solubility ([6]; EtOH/Water 90/10 (v/v), organic solvent or mixture, read-out: ASA solubility): 220000 µg/mL (≈ 1220 mM)
ASA solubility ([6]; all solvent blends except 25/75 EtOH/water): up to 5 wt. % total solids
SMILES: CC(=O)Oc1ccccc1C(=O)O [acetylsalicylic acid]

precipitation after mixing [3]: no evidence of precipitation
time to precipitation out of solution ([3]; 7 wt. % solids, 85/15 ASA/L-leucine formulation, after mixing): approximately 60 seconds
solubility ([6]; Neutral, EtOH/Water 0/100 (v/v), read-out: L-Leucine solubility): 10000 µg/mL (≈ 76.2 mM)
L-Leucine solubility ([6]; Neutral, EtOH/Water 25/75 (v/v)): 0.04 wt. %
L-Leucine solubility ([6]; Neutral, EtOH/Water 50/50 (v/v)): 0.03 wt. %
L-Leucine solubility ([6]; Neutral, EtOH/Water 75/25 (v/v)): 0.02 wt. %
L-Leucine solubility ([6]; Neutral, EtOH/Water 90/10 (v/v)): Insouble
solubility ([6]; aqueous buffer, pH 3, EtOH/Water 0/100 (v/v), read-out: L-Leucine solubility): 17000 µg/mL (≈ 130 mM)
solubility ([6]; aqueous with cosolvent or surfactant or cyclodextrin, Neutral, EtOH/Water 10/90 (v/v), read-out: L-Leucine solubility): 9000 µg/mL (≈ 68.6 mM)
solubility ([6]; aqueous with cosolvent or surfactant or cyclodextrin, Neutral, EtOH/Water 25/75 (v/v), read-out: L-Leucine solubility): 400 µg/mL (≈ 3.05 mM)
solubility ([6]; aqueous with cosolvent or surfactant or cyclodextrin, Neutral, EtOH/Water 50/50 (v/v), read-out: L-Leucine solubility): 300 µg/mL (≈ 2.29 mM)
solubility ([6]; aqueous with cosolvent or surfactant or cyclodextrin, pH 3, EtOH/Water 10/90 (v/v), read-out: L-Leucine solubility): 11000 µg/mL (≈ 83.9 mM)
solubility ([6]; aqueous with cosolvent or surfactant or cyclodextrin, pH 3, EtOH/Water 50/50 (v/v), read-out: L-Leucine solubility): 1000 µg/mL (≈ 7.62 mM)
solubility ([6]; organic solvent or mixture, Neutral, EtOH/Water 75/25 (v/v), read-out: L-Leucine solubility): 200 µg/mL (≈ 1.52 mM)
L-Leucine solubility ([6]; pH 3, EtOH/Water 0/100 (v/v)): 1.7 wt. %
L-Leucine solubility ([6]; pH 3, EtOH/Water 10/90 (v/v)): 1.0 wt. %
L-Leucine solubility ([6]; pH 3, EtOH/Water 50/50 (v/v)): 0.1 wt. %
SMILES: CC(C)C[C@H](N)C(=O)O [L-Leucine, L-leucine]
